Assay results taken from patent publication US20250179061A1 (SIRONAX LTD., priority 2022, published 2025).
pIC50: −log10 of the molar value.

The molecules below were run on HT-29 cells (assay: HT-29 necroptosis cell viability assay (TNF-α/SMAC mimetic/zVAD-FMK, CellTiter-Glo)). Settings: Homo sapiens, HT-29, HT-29 cells, necroptosis induced by TNF-α/SMAC mimetic/zVAD-FMK, CellTiter-Glo; read-out: Activity (IC50 class).
Assay type: cell-based
Outline: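 Necroptosis was triggered by TNF-α (10 ng/ml), SMAC mimetic (6 μM) and zVAD-FMK (10 μM) in serum-free medium during 20 h compound exposure (10 concentrations, threefold steps) of HT-29 cells. IC50 from duplicate dose-responses uses CellTiter-Glo ATP luminescence as viability read-out.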

Row | Compound | pIC50
1 | CN(C)c1ccccc1Oc1ccc(-n2nc(Cl)n(Cc3ccccc3)c2=O)cc1 [Example 677, 4-benzyl-5-chloro-2-(4-(2-(dimethylamino)phenoxy)phenyl)-2,4-dihydro-3H-1,2,4-triazol-3-one] | 6.00 to 7.00
2 | Nc1ccccc1Oc1ccc(-n2nc(Cl)n(Cc3ccccc3)c2=O)cc1 [Example 679, 2-(4-(2-aminophenoxy)phenyl)-4-benzyl-5-chloro-2,4-dihydro-3H-1,2,4-tirazol-3-one] | > 7.00
3 | O=c1n(Cc2c(F)cccc2F)cnn1-c1ccc(Oc2cc(N3CC4(C3)CN(C3CC3)C4)ncc2F)c(F)c1 [Example 680, 2-(4-((2-(6-cyclopropyl-2,6-diazaspiro[3.3]heptan-2-yl)-5-fluoropyridin-4-yl)oxy)-3-fluorophenyl)-4-(2,6-difluorobenzyl)-2,4-dihydro-3H-1,2,4-triazol-3-one] | > 7.00
4 | O=c1n(-c2ccc(N3CCOc4ccccc43)cc2)nc(Cl)n1Cc1ccccc1 [Example 681, 4-benzyl-5-chloro-2-(4-(2,3-dihydro-4H-benzo[b][1,4]oxazin-4-yl)phenyl)-2,4-dihydro-3H-1,2,4-triazol-3-one] | 6.00 to 7.00
5 | N#CC1CC(n2cccc(Cc3ccc(-n4ncn(Cc5c(F)cccc5F)c4=O)cc3)c2=O)C1 (stereo not shown) [Example 682, 3-(3-(4-(4-(2,6-difluorobenzyl)-5-oxo-4,5-dihydro-1H-1,2,4-triazol-1-yl)benzyl)-2-oxopyridin-1(2H)-yl)cyclobutane-1-carbonitrile] | 6.00 to 7.00
6 | COc1ncccc1Cc1ccc(-n2ncn(Cc3c(F)cccc3F)c2=O)cc1 [Example 683, 4-(2,6-difluorobenzyl)-2-(4-((2-methoxypyridin-3-yl)methyl)phenyl)-2,4-dihydro-3H-1,2,4-triazol-3-one] | > 7.00
7 | N#CC1CC(Oc2ncccc2Cc2ccc(-n3ncn(Cc4c(F)cccc4F)c3=O)cc2)C1 (stereo not shown) [Example 684, 3-((3-(4-(4-(2,6-difluorobenzyl)-5-oxo-4,5-dihydro-1H-1,2,4-triazol-1-yl)benzyl)pyridin-2-yl)oxy)cyclobutane-1-carbonitrile] | 6.00 to 7.00
